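48-hour exposure; five concentrations; linearly interpolated endpoints. Abbreviation: GI50, concentration required for 50% inhibition of growth. Definition used: TGI = concentration required for complete inhibition of growth.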

Among the test systems are LOX IMVI melanoma; U251 CNS; HCT-116 colon; SW-620 colon; HL-60(TB) leukemia; OVCAR-5 ovarian; UO-31 renal; SR leukemia; EKVX NSCLC; MALME-3M melanoma.
What all share (experiment): NCI anticancer screen, dose series, 48 h

Consider `COc1ccc(N2CCN(c3nc(-c4ccccn4)nc4sc5c(c34)CCCCCC5)CC2)cc1`, for which the GI50 in the assay with LOX IMVI melanoma was 6.24 µM; with U251 CNS it was 4.26 µM; in the assay on HCT-116 colon it was 3.22 µM; in the assay with SW-620 colon, 5.08 µM; in the assay with HL-60(TB) leukemia, 4.05 µM; in the assay on OVCAR-5 ovarian, 51.7 µM. Besides, the figures for the GI50 in the assay with UO-31 renal and in the assay with SR leukemia were 3.28 µM and 3.18 µM, respectively. The TGI in the assay on LOX IMVI melanoma is above 100 µM; in the assay on U251 CNS it was above 100 µM; in the assay with HCT-116 colon it was above 100 µM; in the assay on SW-620 colon, above 100 µM; in the assay with HL-60(TB) leukemia, 34 µM; in the assay on OVCAR-5 ovarian, above 100 µM. Moreover, the TGI in the assay on UO-31 renal and in the assay on SR leukemia was above 100 µM in each case.

Turning to `Cc1ccc(O)c(C(=O)/C=C/c2ccccc2)c1`, the TGI with EKVX NSCLC, in the assay on LOX IMVI melanoma, with U251 CNS, in the assay with HCT-116 colon, with SW-620 colon and in the assay with HL-60(TB) leukemia was above 100 µM in each case. Besides, the TGI in the assay with OVCAR-5 ovarian, in the assay with UO-31 renal and with SR leukemia was above 100 µM each time.

Turning to `COc1ccc(C2CC(=O)Nc3c2c(C)nn3-c2nc3ccccc3[nH]2)cc1OC` (stereo not given), the GI50 in the assay on LOX IMVI melanoma was 4.51 µM; in the assay on U251 CNS it was 4.58 µM; with HCT-116 colon, 3.31 µM; with MALME-3M melanoma, 4.94 µM; in the assay on SW-620 colon, 4.86 µM; in the assay with HL-60(TB) leukemia, 3.29 µM. Besides, the GI50 with OVCAR-5 ovarian was 25.4 µM; in the assay with UO-31 renal, 3.37 µM; in the assay on SR leukemia it was 3.36 µM. The TGI is 19.1 µM in the assay with LOX IMVI melanoma; 19.7 µM in the assay with U251 CNS; 14.9 µM with HCT-116 colon; 29 µM with MALME-3M melanoma; 49.6 µM in the assay with SW-620 colon; 12.6 µM in the assay on HL-60(TB) leukemia. The TGI in the assay on OVCAR-5 ovarian was above 77.2 µM; in the assay on UO-31 renal it was 14.6 µM; in the assay with SR leukemia, 26.2 µM.

On to `Nc1cc2c3ccccc3ccc2c2ccccc12`, for which the GI50 is 9.13 µM in the assay on LOX IMVI melanoma; 21.4 µM in the assay on U251 CNS; 13.4 µM with HCT-116 colon; above 100 µM in the assay on MALME-3M melanoma; above 100 µM in the assay with SW-620 colon; above 68.6 µM in the assay with HL-60(TB) leukemia. The GI50 with OVCAR-5 ovarian, in the assay on UO-31 renal and in the assay with SR leukemia was above 100 µM throughout. Besides, the TGI with LOX IMVI melanoma, with U251 CNS, in the assay on HCT-116 colon, in the assay on MALME-3M melanoma, with SW-620 colon and in the assay with HL-60(TB) leukemia was above 100 µM each time. In addition, the TGI in the assay on OVCAR-5 ovarian, in the assay with UO-31 renal and in the assay with SR leukemia was above 100 µM throughout.

On to `O=c1[nH]c(C2CCCCC2)nc2ccc(Cl)cc12`, for which the TGI in the assay on EKVX NSCLC, in the assay with U251 CNS, with HCT-116 colon, in the assay with MALME-3M melanoma, in the assay with SW-620 colon and with OVCAR-5 ovarian was above 100 µM each time. Also, the TGI in the assay with UO-31 renal and with SR leukemia was above 100 µM in each case.

Take `COc1cc(OC)c(OC)cc1/C=C/c1ccc2ccccc2n1`: the TGI with LOX IMVI melanoma, with U251 CNS, in the assay with HCT-116 colon, in the assay on MALME-3M melanoma, in the assay on SW-620 colon and with HL-60(TB) leukemia was above 10 µM throughout. Moreover, the TGI in the assay with OVCAR-5 ovarian and in the assay with SR leukemia was above 10 µM throughout.

Turning to `OCC1OC(N2CCN(C3OC(CO)C(O)C(O)C3O)CC2)C(O)C(O)C1O` (stereo not given), the TGI in the assay on EKVX NSCLC, in the assay with LOX IMVI melanoma, in the assay with U251 CNS, with HCT-116 colon, in the assay on MALME-3M melanoma and with SW-620 colon was above 100 µM throughout. For the same compound, the TGI with OVCAR-5 ovarian, with UO-31 renal and with SR leukemia was above 100 µM in each case.

As to `O=C(COc1ccc(Cl)cc1Cl)NNc1ccc([N+](=O)[O-])cc1`, the GI50 in the assay on LOX IMVI melanoma is above 100 µM; in the assay on U251 CNS it was 20.1 µM; with HCT-116 colon, 65.3 µM; with MALME-3M melanoma, 23.6 µM; in the assay with SW-620 colon, above 100 µM; in the assay on HL-60(TB) leukemia, above 100 µM. In addition, the GI50 was above 100 µM in the assay on OVCAR-5 ovarian, above 100 µM in the assay with UO-31 renal and 49.9 µM in the assay with SR leukemia. Also, the TGI in the assay on LOX IMVI melanoma is above 100 µM; in the assay with U251 CNS it was 43.6 µM; with HCT-116 colon, above 100 µM; in the assay on MALME-3M melanoma, 57.1 µM; in the assay with SW-620 colon, above 100 µM; in the assay with HL-60(TB) leukemia, above 100 µM. The TGI in the assay with OVCAR-5 ovarian, with UO-31 renal and in the assay with SR leukemia was above 100 µM in each case.

Consider `[N-]=[N+]=NCCCn1c2c(c3ccccc3c1=O)C(=O)c1cc3c(cc1-2)OCO3`, for which the GI50 was above 100 µM with EKVX NSCLC; 44.9 µM in the assay with LOX IMVI melanoma; 28.7 µM with U251 CNS; 29.8 µM with HCT-116 colon; above 100 µM with SW-620 colon; 43.6 µM in the assay on HL-60(TB) leukemia. The GI50 in the assay on OVCAR-5 ovarian is above 100 µM; in the assay on UO-31 renal, above 100 µM; in the assay on SR leukemia it was 0.157 µM. In addition, the TGI with EKVX NSCLC, with LOX IMVI melanoma, with U251 CNS, with HCT-116 colon, in the assay with SW-620 colon and in the assay with HL-60(TB) leukemia was above 100 µM in each case. Besides, the TGI with OVCAR-5 ovarian, in the assay on UO-31 renal and in the assay on SR leukemia was above 100 µM in each case.

On to `COc1ccc(C2[C@@H](Cl)C(=O)N2c2ccc(OC)cc2)cc1` (stereo not given in full), for which the TGI with EKVX NSCLC, in the assay with U251 CNS, in the assay with HCT-116 colon, in the assay with MALME-3M melanoma, in the assay with SW-620 colon and with HL-60(TB) leukemia was above 100 µM each time. Also, the TGI with OVCAR-5 ovarian, in the assay with UO-31 renal and in the assay on SR leukemia was above 100 µM each time.

For `CCN(CC(O)COc1ccc2c(c1)[n+]([O-])nc(N)[n+]2[O-])C(C)=O` (stereo not given), the TGI in the assay with EKVX NSCLC, in the assay with LOX IMVI melanoma, in the assay with U251 CNS, in the assay with HCT-116 colon, in the assay on SW-620 colon and in the assay with HL-60(TB) leukemia was above 100 µM in each case. Further, the TGI in the assay with OVCAR-5 ovarian, in the assay with UO-31 renal and in the assay on SR leukemia was above 100 µM each time.

Take `Cc1cc(S(=O)(=O)Nc2nc3ccccc3s2)c(SCc2ccccc2)cc1Cl`: the GI50 was 13.2 µM in the assay with EKVX NSCLC; 12.1 µM in the assay on LOX IMVI melanoma; 13.6 µM with U251 CNS; 15.1 µM in the assay on HCT-116 colon; 18.8 µM in the assay on SW-620 colon; 17.3 µM in the assay on HL-60(TB) leukemia. Further, the values for the GI50 in the assay on OVCAR-5 ovarian, in the assay with UO-31 renal and in the assay on SR leukemia were 18.8 µM, 19.4 µM and 18.3 µM, respectively. The TGI in the assay on EKVX NSCLC was found to be 49.2 µM; with LOX IMVI melanoma, 24.5 µM; with U251 CNS it was 26.4 µM; in the assay with HCT-116 colon, 28.4 µM; in the assay with SW-620 colon, 37.6 µM; with HL-60(TB) leukemia, 45.4 µM. In addition, the TGI in the assay with OVCAR-5 ovarian was 36.7 µM; with UO-31 renal, 45.9 µM; in the assay on SR leukemia, 58 µM.

As for `CCN(Cc1c(F)cccc1C(F)(F)F)c1ccc(CO)c(Cl)c1`, the GI50 was 18.1 µM in the assay with LOX IMVI melanoma; 0.623 µM in the assay with U251 CNS; below 0.0371 µM with HCT-116 colon; 15.2 µM in the assay on MALME-3M melanoma; 0.79 µM in the assay on SW-620 colon; 15.9 µM in the assay with HL-60(TB) leukemia. The GI50 with OVCAR-5 ovarian was below 0.0249 µM; with UO-31 renal, 14.6 µM; in the assay with SR leukemia, 14.5 µM. The TGI in the assay with LOX IMVI melanoma came to 33.3 µM; in the assay on U251 CNS, 17.5 µM; in the assay with HCT-116 colon, 11.8 µM; with MALME-3M melanoma it was 30.1 µM; in the assay with SW-620 colon, 20.4 µM; in the assay on HL-60(TB) leukemia, 36.9 µM. Further, the values for the TGI in the assay with OVCAR-5 ovarian, with UO-31 renal and in the assay with SR leukemia were 0.205 µM, 28.3 µM and 36.5 µM, respectively.

For `Cc1cc(NCCCCCCCCNc2cc(C)nc3cc(N(C)C)ccc23)c2ccc(N(C)C)cc2n1`, the TGI with EKVX NSCLC was 28.5 µM; in the assay with LOX IMVI melanoma, 8.99 µM; with U251 CNS, 9.45 µM; in the assay on HCT-116 colon it was 14 µM; in the assay on SW-620 colon, 87.6 µM; with HL-60(TB) leukemia, 6.11 µM. Besides, the TGI in the assay on UO-31 renal was above 100 µM; in the assay with SR leukemia, 43.9 µM.

Consider `Fc1ccc(Nc2ccnc(N3CCN(c4ccnc5cc(Cl)ccc45)CC3)n2)cc1`, for which the GI50 is 1.82 µM with LOX IMVI melanoma; 1.87 µM in the assay on U251 CNS; 1.97 µM in the assay on HCT-116 colon; 2.92 µM in the assay on SW-620 colon; 2.59 µM with HL-60(TB) leukemia; 3.82 µM in the assay with OVCAR-5 ovarian. Also, the results for the GI50 in the assay with UO-31 renal and in the assay with SR leukemia were 0.845 µM and 2.61 µM, respectively. The TGI with LOX IMVI melanoma is 3.62 µM; in the assay on U251 CNS it was 5.27 µM; in the assay with HCT-116 colon, 5.24 µM; with SW-620 colon it was 13.9 µM; in the assay with HL-60(TB) leukemia, 6.44 µM; in the assay with OVCAR-5 ovarian, above 100 µM. The TGI in the assay with UO-31 renal was determined as 4.54 µM; with SR leukemia, 8.76 µM.

The record behind these values is PubChem BioAssay (NCI).
